# Experimental data reported in patent publication US10385005B2, “Compositions and methods for glucose transport inhibition” (OHIO UNIVERSITY, priority 2010, dated 2019).
# Values joined by “and” are separate entries in the source; they are usually repeats but may differ in a detail not shown here. Equal entries are not always repeated. Marks after values point to notes of the source that are not given here.
# Tests used:
# [1] = test system: H1299 cells; test: Standard glucose uptake assay, H1299; type: cell-based, human; details: for Glucose transport inhibition (%) / level of glucose transport inhibition (in words): H1299; for % inhibition of basal glucose transport: Table 3, 30 μM in H1299 cells
# Protocol: (§1) Briefly, H1299 cancer cells were treated with or without the compounds (30 μM) in triplicates for 10 min before the glucose uptake assay. Cellular glucose uptake was measured by incubating cells in the glucose-free KRP buffer with […] [^3H]2-deoxyglucose (specific activity, 40 Ci/mmol) for 30 min in the absence or presence of compounds. After the cells were washed with ice-cold PBS and lysed by 0.2 N NaOH, the cell lysates were transferred to scintillation counting vials and the radioactivity in the cell lysates was quantified by liquid scintillation counting. Cell growth measurements were performed using an MTT assay in hexads in a 96-well tissue culture plate with 5,000 cells plated in each well. The cells were incubated in presence or absence of the compounds (30 μM) for 48 h. After incubation, cell viabilities were assayed using a 96-well SPECTRAMAX™ absorbance/fluorescence plate reader (Molecular Devices).
# Cancer cells are treated with or without the compounds for 10 min before the glucose uptake assay. Cellular glucose uptake will be measured by incubating cells in glucose-free RPMI 1640 with […] [^3H]2-deoxyglucose (specific activity, 40 Ci/mmol) for 30 min in the absence and presence of compounds. After the cells are washed with ice-cold PBS and lysed, the cell lysates will be transferred to scintillation counting vials and the radioactivity in the cell lysates is quantified by liquid scintillation counting.
# [2] = test system: H1299 lung cancer cells; test: MTT cell growth / viability assay, H1299; type: cell-based, human
# Protocol: as §1
# MTT assays are performed by the following well-established method. In a 96 well tissue culture plate 10,000 cells are plated in each well. The cells are incubated in presence or absence of the compounds for 18 h. 3-(4,5-Dimethylthiazol-2-yl)-2,5-diphenyltetrazolium bromide (MTT) is dissolved in PBS (10 mg/ml) and filter sterilized. Three hours before the end of the incubation 20 μL of MTT solution is added to each well containing cells in a 96-well plate. The plate is incubated in an incubator at 37° C. for 3 h. Media is aspirated gently and 200 μL of DMSO is added to each well to dissolve formazan crystals. The absorbance is measured at 550 nm for cell viability.
# [3] = test system: cancer cells; test: Anticancer screens of hydrolysis products; type: cell-based
# Excerpt: (§2) In summary, a library of multiphenolic ester compounds as novel inhibitors of basal glucose transport and anticancer agents with a potential new target, basal glucose transport, were synthesized.
# [4] = test system: basal glucose uptake; test: Glucose uptake of possible hydrolyzed products (FIG. 2); type: cell-based
# Excerpt: as §2
# [5] = HPLC analysis of compound stability in human serum; type: in vitro ADME; details: for Compound concentration (%) after incubation with serum: human serum, 37 C
# Protocol: A total of 2.5 ml of compound solution was added to 22.5 ml of human serum and the mixture was incubated at 37 C for various times. The final concentration of the compound in serum was 6.8 mM. After incubation, […] of acetonitrile was added to the mixture, centrifuged to remove proteins before HPLC analysis. The relative concentration of samples at 0 h (in serum but without incubation) was arbitrarily assigned a value of 100% and all other samples were compared to the 0 h samples.
# [6] = Table 2, 30 μM, untreated cells 0% inhibition
Structure (SMILES),"Glucose transport inhibition (%) [1, 6] [%]","Cell growth inhibition (%) ([2]; Table 2, 30 μM, 48 h)",Glucose transport inhibition (%) ([1]; Table 12),also measured
O=C(Oc1ccc(Cl)cc1OC(=O)c1cc(O)c(O)c(O)c1)c1cc(O)c(O)c(O)c1 [Compound 1b],84.4 ± 0.1,,,
O=C(Oc1cccc(F)c1OC(=O)c1cc(O)c(O)c(O)c1)c1cc(O)c(O)c(O)c1 [Compound 1c],81.1 ± 1.1,,,% inhibition of basal glucose transport [1]: 81.0 ± 1.1%
O=C(Oc1ccccc1OC(=O)c1cc(O)c(O)c(O)c1)c1cc(O)c(O)c(O)c1 [Compound 1d],32.1 ± 6.2,,,level of glucose transport inhibition (in words) ([1]; 30 μM): lower levels of inhibition relative to 1a and 2a
COc1cccc(OC(=O)c2cc(O)cc(O)c2)c1OC(=O)c1cc(O)cc(O)c1 [Compound 1e],69.4 ± 3.0,,,level of glucose transport inhibition (in words) ([1]; 30 μM): little to no inhibition
O=C(Oc1ccc(Cl)cc1OC(=O)c1cc(O)cc(O)c1)c1cc(O)cc(O)c1 [Compound 1f],95.2 ± 0.2,38.8 ± 6.9,,% inhibition of basal glucose transport ([1]; listed as WZB-114): 96.1 ± 0.1%
O=C(Oc1cccc(F)c1OC(=O)c1cc(O)cc(O)c1)c1cc(O)cc(O)c1 [Compound 1g],94.0 ± 0.8,35.0 ± 7.6,,% inhibition of basal glucose transport ([1]; listed as WZB-113): 96.7 ± 1.6%
COc1cccc(OC(=O)c2ccc(O)c(O)c2)c1OC(=O)c1ccc(O)c(O)c1 [Compound 1h],0,32.4 ± 2.7,,level of glucose transport inhibition (in words) ([1]; 30 μM): little to no inhibition
O=C(Oc1ccc(Cl)cc1OC(=O)c1ccc(O)c(O)c1)c1ccc(O)c(O)c1 [Compound 1i],94.4 ± 0.4,45.2 ± 7.6,,
O=C(Oc1cccc(F)c1OC(=O)c1ccc(O)c(O)c1)c1ccc(O)c(O)c1 [Compound 1j],88.7 ± 1.8,41.5 ± 5.5,,
COc1cccc(OC(=O)c2ccccc2O)c1OC(=O)c1ccccc1O [Compound 1k],50.5 ± 7.6,18.0 ± 4.4,,
O=C(Oc1ccc(Cl)cc1OC(=O)c1ccccc1O)c1ccccc1O [Compound 1l],51.6 ± 5.9,26.6 ± 2.3,,
O=C(Oc1cccc(F)c1OC(=O)c1ccccc1O)c1ccccc1O [Compound 1m],51.0 ± 6.6,,,
COc1cccc(OC(=O)c2ccc(O)cc2)c1OC(=O)c1ccc(O)cc1 [Compound 1n],86.5 ± 2.8,36.6 ± 6.7,,
O=C(Oc1ccc(Cl)cc1OC(=O)c1ccc(O)cc1)c1ccc(O)cc1 [Compound 1o],79.0 ± 8.7,,,
O=C(Oc1cccc(F)c1OC(=O)c1ccc(O)cc1)c1ccc(O)cc1 [Compound 1p],92.6 ± 0.7,35.9 ± 4.7,,
O=C(Oc1ccccc1OC(=O)c1ccc(O)cc1)c1ccc(O)cc1 [Compound 1q],57.5 ± 2.9,,,
O=C(Oc1cccc(OC(=O)c2cc(O)cc(O)c2)c1OC(=O)c1cc(O)cc(O)c1)c1cc(O)cc(O)c1 [Compound 2b],98.7 ± 0.8,41.0 ± 5.5,,% inhibition of basal glucose transport ([1]; listed as WZB-111): 99.5 ± 0.3%
O=C(Oc1cccc(OC(=O)c2ccc(O)c(O)c2)c1OC(=O)c1ccc(O)c(O)c1)c1ccc(O)c(O)c1 [Compound 2c],94.7 ± 0.4,42.2 ± 6.1,,

Structure (SMILES),"Glucose transport inhibition (%) [1, 6] [%]","Cell growth inhibition (%) ([2]; Table 2, 30 μM, 48 h)",Glucose transport inhibition (%) ([1]; Table 12),also measured
O=C(Oc1cccc(OC(=O)c2ccccc2O)c1OC(=O)c1ccccc1O)c1ccccc1O [Compound 2d],74.7 ± 2.0,,,
Oc1cccc(F)c1O [Compound 6c],,,,activity in anticancer screens [3]: none of these compounds showed any activity in anticancer screens; glucose uptake inhibition activity [4]: none of these compounds had any glucose uptake inhibition activity
COc1cc(C(=O)Oc2cccc(OC)c2OC(=O)c2cc(OC)c(OC)c(OC)c2)cc(OC)c1OC [Compound 7a],33.3 ± 3.6,22.2 ± 3.4,,level of glucose transport inhibition (in words) ([1]; 30 μM): dramatically decreased
COc1cc(C(=O)Oc2ccc(Cl)cc2OC(=O)c2cc(OC)c(OC)c(OC)c2)cc(OC)c1OC [Compound 7b],1.7 ± 1.1,20.6 ± 2.1,,level of glucose transport inhibition (in words) ([1]; 30 μM): dramatically decreased
COc1cc(C(=O)Oc2cccc(F)c2OC(=O)c2cc(OC)c(OC)c(OC)c2)cc(OC)c1OC [Compound 7c],7.9 ± 2.6,19.6 ± 3.6,,"level of glucose transport inhibition (in words) ([1]; 30 μM, listed as WZB-101): dramatically decreased levels of activity"
COc1cccc(C(=O)Oc2cccc(OC)c2OC(=O)c2cccc(OC)c2)c1 [Compound 7d],32.1 ± 0.2,18.3 ± 4.3,,
"Oc1cccc(O)c1O [Compound 8, pyrogallol]",,,,activity in anticancer screens [3]: none of these compounds showed any activity in anticancer screens; glucose uptake inhibition activity [4]: none of these compounds had any glucose uptake inhibition activity
O=C(Nc1ccc(F)cc1NC(=O)c1cccc(O)c1)c1cccc(O)c1 [WZB-124],,,89.7 ± 2.5^b %,Cell growth inhibition (%) ([2]; Table 12): 5.7 ± 2.1%
O=C(Nc1ccc(Cl)cc1NC(=O)c1cccc(O)c1)c1cccc(O)c1 [WZB-125],,,83.7 ± 0.7%,Cell growth inhibition (%) ([2]; Table 12): 5.9 ± 1.4%
COc1cccc(OCc2cccc(O)c2)c1OCc1cccc(O)c1 [WZB-132],,,60.0 ± 7.7%,Cell growth inhibition (%) ([2]; Table 12): 6.0 ± 2.2%
Oc1cccc(COc2cccc(F)c2OCc2cccc(O)c2)c1 [WZB-134],,,92.5±2.2% and 92.6 ± 2.2%,Cell growth inhibition (%) ([2]; Table 12): 10.6±2.0%
Oc1cccc(CNc2ccc(Cl)cc2NCc2cccc(O)c2)c1 [WZB-138],,,52.2 ± 9.7%,
Oc1cccc(CNc2ccc(F)cc2NCc2cccc(O)c2)c1 [WZB-139],,,39.2 ± 0.8%,
Oc1cccc(COc2ccc(Cl)c(OCc3cccc(O)c3)c2)c1 [WZB-141],,,96.5±0.5%,Cell growth inhibition (%) ([2]; Table 12): 39.5±1.8%; Compound concentration (%) after incubation with serum ([5]; 0 h (arbitrarily assigned 100%)): 100%; Compound concentration (%) after incubation with serum ([5]; 4 h): 103.5%; Compound concentration (%) after incubation with serum ([5]; 24 h): 109.7%; Compound concentration (%) after incubation with serum ([5]; 48 h): 87.4%; relative stability in serum ([5]; ether vs ester bond-containing compounds): much more stable in serum than ester bond-containing compounds WZB-115 and WZB-117; Compound concentration (%) after incubation with serum ([5]; l h): 100.3%
CN(C(=O)c1cccc(O)c1)c1ccc(Cl)cc1N(C)C(=O)c1cccc(O)c1 [WZB-142],,,82.7 ± 6.8%,Cell growth inhibition (%) ([2]; Table 12): 14.2 ± 9.0%
CN(C(=O)c1cccc(O)c1)c1ccc(F)cc1N(C)C(=O)c1cccc(O)c1 [WZB-143],,,85.7 ± 3.6%,Cell growth inhibition (%) ([2]; Table 12): 31.1 ± 7.9%
CN(Cc1cccc(O)c1)c1ccc(F)cc1N(C)Cc1cccc(O)c1 [WZB-144],,,78.2±1.4%,Cell growth inhibition (%) ([2]; Table 12): 14.5±7.6%
CN(Cc1cccc(O)c1)c1ccc(Cl)cc1N(C)Cc1cccc(O)c1 [WZB-145],,,73.2 ± 3.8%,Cell growth inhibition (%) ([2]; Table 12): 38.2 ± 6.6%
